Results taken from ChEMBL document CHEMBL5678818, “Discovery of potent SOS1 inhibitors that block RAS activation via disruption of the RAS-SOS1 interaction” (Proc Natl Acad Sci U S A, 2019).

Experiments:
[1] = molecular target: T1, Tyrosine-protein kinase Mer (Homo sapiens) (UniProt Q12866); assay: Inhibition of MERTK (unknown origin) assessed as residual activity at 1000 nM by KINOMEscan analysis relative to control
T1 sequence (whole entry): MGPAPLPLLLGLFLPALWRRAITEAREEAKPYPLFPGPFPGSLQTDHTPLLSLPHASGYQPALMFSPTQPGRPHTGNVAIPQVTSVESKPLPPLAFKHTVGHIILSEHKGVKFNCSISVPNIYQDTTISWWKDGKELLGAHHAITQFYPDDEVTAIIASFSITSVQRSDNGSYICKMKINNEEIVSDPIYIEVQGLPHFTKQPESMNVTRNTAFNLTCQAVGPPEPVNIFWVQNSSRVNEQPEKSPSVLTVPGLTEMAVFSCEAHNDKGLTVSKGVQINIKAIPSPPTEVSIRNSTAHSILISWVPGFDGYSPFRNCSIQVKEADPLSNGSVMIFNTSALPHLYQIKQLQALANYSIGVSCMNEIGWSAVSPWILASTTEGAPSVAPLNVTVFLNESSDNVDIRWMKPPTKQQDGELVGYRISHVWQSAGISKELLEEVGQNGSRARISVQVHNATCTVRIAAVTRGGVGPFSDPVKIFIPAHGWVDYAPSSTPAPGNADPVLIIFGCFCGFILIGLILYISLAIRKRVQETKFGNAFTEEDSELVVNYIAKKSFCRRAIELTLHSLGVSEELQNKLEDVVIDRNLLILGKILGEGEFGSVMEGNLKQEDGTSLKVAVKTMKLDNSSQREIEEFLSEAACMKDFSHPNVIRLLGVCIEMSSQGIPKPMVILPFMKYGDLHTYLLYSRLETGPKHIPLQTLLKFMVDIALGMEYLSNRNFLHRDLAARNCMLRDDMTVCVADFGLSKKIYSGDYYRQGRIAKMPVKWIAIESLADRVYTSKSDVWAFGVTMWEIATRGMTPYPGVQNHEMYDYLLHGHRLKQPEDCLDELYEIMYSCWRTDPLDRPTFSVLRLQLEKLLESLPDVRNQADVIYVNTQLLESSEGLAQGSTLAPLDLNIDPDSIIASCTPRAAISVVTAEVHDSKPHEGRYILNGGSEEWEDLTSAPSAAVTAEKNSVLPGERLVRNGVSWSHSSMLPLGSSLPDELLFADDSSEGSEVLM

[2] = molecular target: T2, Serine/threonine-protein kinase Chk1 (Homo sapiens) (UniProt O14757); assay: Inhibition of CHEK1 (unknown origin) assessed as residual activity at 1000 nM by KINOMEscan analysis relative to control
T2 sequence (whole entry): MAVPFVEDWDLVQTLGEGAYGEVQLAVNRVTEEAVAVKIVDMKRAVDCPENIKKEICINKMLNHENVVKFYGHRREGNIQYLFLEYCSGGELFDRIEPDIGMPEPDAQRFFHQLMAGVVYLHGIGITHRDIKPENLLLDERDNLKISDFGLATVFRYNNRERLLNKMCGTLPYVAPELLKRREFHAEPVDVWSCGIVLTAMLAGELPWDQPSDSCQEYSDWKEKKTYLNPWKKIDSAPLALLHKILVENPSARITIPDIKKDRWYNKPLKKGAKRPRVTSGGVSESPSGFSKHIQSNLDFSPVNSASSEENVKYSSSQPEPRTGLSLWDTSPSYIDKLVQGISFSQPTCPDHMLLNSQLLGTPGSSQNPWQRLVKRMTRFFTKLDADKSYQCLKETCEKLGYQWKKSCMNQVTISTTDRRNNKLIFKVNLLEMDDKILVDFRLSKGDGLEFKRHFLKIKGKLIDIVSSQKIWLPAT

[3] = molecular target: T3, Serine/threonine-protein kinase LATS2 (Homo sapiens) (UniProt Q9NRM7); assay: Inhibition of LATS2 (unknown origin) assessed as residual activity at 1000 nM by KINOMEscan analysis relative to control
T3 sequence (whole entry): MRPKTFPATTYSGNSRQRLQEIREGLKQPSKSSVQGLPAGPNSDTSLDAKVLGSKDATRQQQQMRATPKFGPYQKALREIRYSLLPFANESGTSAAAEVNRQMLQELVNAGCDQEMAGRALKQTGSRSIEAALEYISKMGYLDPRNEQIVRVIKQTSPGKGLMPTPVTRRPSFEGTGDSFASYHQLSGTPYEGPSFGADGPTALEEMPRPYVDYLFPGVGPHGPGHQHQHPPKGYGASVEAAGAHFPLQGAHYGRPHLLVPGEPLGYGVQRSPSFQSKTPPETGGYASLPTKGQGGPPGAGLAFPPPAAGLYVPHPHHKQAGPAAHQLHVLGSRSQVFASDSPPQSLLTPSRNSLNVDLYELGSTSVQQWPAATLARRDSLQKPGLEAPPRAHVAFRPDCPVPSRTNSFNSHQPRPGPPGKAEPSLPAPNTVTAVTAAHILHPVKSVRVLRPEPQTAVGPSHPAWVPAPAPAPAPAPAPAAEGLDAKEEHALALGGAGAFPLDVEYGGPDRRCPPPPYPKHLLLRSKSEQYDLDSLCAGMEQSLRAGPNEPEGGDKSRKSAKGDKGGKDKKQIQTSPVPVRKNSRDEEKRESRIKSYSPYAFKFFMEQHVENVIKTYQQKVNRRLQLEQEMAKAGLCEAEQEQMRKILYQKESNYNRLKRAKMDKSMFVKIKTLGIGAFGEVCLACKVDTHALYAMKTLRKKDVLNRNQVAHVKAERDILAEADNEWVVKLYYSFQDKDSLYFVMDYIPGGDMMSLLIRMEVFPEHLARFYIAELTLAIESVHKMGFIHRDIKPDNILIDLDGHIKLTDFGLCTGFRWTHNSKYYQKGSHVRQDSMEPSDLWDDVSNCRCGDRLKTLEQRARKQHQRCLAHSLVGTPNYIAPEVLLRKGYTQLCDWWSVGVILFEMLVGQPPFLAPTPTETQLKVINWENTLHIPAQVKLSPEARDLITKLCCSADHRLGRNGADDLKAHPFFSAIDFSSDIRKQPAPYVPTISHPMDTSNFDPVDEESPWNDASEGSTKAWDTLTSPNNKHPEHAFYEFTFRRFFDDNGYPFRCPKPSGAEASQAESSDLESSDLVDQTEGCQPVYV

[4] = molecular target: Vascular endothelial growth factor receptor 2 (Homo sapiens) (UniProt P35968); assay: Inhibition of VEGFR2 (unknown origin) assessed as residual activity at 1000 nM by KINOMEscan analysis relative to control
Chain of Vascular endothelial growth factor receptor 2 (Homo sapiens) (P35968 whole entry): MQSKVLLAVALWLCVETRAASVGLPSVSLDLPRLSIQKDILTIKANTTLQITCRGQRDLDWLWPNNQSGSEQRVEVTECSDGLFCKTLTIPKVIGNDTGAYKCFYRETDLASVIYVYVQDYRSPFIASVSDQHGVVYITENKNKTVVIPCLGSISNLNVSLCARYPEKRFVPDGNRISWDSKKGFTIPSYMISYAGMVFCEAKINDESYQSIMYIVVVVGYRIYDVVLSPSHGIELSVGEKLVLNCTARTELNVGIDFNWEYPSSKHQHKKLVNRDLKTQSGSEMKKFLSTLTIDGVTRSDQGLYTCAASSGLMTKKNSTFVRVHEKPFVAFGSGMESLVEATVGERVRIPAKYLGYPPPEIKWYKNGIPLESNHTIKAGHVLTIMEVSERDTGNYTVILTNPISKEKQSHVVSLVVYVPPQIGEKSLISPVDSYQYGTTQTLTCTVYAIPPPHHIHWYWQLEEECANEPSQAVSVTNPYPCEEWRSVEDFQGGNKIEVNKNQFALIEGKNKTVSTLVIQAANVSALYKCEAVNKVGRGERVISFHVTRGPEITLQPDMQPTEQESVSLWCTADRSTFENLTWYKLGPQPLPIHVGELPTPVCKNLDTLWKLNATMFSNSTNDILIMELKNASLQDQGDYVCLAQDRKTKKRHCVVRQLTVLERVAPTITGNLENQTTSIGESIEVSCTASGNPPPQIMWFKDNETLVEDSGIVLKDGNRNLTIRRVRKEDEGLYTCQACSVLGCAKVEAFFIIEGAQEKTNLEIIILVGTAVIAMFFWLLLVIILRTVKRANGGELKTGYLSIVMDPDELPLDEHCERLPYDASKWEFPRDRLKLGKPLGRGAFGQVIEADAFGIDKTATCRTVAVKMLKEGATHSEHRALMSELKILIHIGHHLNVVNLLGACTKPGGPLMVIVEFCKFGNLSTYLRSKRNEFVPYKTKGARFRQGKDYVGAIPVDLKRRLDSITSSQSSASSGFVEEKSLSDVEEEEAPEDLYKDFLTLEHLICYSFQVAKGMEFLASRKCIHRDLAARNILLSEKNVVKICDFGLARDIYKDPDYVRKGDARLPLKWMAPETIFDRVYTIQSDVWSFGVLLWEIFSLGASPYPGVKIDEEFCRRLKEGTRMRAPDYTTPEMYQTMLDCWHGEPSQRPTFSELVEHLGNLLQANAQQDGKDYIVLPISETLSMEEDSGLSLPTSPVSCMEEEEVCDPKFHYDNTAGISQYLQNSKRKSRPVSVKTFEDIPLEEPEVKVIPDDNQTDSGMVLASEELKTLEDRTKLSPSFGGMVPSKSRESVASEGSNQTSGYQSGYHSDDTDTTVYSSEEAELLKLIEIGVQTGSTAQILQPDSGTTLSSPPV

[5] = test system: ALK tyrosine kinase receptor (Homo sapiens), Q9UM73 [C1156Y]; assay: Inhibition of ALK C1156Y mutant (unknown origin) assessed as residual activity at 1000 nM by KINOMEscan analysis relative to control
Chain of ALK tyrosine kinase receptor (Homo sapiens), Q9UM73 [C1156Y] (Q9UM73 whole entry C1156Y, looked up): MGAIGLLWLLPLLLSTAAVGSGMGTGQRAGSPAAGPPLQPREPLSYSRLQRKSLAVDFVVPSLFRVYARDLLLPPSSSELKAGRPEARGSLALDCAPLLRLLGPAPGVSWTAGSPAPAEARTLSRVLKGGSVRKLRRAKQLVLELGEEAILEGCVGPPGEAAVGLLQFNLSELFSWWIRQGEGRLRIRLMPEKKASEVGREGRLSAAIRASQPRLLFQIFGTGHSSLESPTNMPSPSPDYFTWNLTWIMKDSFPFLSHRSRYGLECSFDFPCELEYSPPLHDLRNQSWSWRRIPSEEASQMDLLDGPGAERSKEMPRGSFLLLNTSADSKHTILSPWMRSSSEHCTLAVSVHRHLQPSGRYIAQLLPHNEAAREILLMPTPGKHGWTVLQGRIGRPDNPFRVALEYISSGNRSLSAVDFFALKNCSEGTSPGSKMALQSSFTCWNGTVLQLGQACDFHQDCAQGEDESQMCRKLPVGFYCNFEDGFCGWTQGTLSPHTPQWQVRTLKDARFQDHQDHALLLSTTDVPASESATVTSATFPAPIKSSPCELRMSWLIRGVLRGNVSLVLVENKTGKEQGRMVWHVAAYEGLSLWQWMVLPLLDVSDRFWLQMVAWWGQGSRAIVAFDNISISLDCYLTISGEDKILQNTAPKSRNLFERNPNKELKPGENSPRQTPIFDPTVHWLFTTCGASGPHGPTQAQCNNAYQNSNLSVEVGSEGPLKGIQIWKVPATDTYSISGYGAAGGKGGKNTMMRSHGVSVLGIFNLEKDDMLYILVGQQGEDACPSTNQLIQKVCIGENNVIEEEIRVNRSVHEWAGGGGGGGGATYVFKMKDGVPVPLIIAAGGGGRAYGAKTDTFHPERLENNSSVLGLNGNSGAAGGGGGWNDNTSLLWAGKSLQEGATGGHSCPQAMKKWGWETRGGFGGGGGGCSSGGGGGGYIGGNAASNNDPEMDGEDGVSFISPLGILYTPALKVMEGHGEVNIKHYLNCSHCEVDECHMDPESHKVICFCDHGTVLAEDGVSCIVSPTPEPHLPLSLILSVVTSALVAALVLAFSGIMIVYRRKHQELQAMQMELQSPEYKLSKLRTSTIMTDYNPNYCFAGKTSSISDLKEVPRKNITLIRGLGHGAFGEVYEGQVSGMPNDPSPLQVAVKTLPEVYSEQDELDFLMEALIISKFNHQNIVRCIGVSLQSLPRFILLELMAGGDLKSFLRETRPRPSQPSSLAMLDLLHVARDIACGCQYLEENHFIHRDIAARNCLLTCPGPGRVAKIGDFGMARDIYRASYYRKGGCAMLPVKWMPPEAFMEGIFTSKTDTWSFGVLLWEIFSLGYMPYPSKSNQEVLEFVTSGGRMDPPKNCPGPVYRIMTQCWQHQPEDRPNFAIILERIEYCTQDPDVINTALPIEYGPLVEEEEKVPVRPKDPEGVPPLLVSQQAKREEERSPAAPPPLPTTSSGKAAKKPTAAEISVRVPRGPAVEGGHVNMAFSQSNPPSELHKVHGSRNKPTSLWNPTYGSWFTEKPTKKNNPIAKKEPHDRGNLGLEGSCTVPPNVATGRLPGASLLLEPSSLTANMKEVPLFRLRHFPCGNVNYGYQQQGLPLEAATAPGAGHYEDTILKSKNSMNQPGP

[6] = molecular target: Mitotic checkpoint serine/threonine-protein kinase BUB1 (Homo sapiens) (UniProt O43683); assay: Inhibition of BUB1 (unknown origin) assessed as residual activity at 1000 nM by KINOMEscan analysis relative to control
Chain of Mitotic checkpoint serine/threonine-protein kinase BUB1 (Homo sapiens) (O43683 whole entry, looked up): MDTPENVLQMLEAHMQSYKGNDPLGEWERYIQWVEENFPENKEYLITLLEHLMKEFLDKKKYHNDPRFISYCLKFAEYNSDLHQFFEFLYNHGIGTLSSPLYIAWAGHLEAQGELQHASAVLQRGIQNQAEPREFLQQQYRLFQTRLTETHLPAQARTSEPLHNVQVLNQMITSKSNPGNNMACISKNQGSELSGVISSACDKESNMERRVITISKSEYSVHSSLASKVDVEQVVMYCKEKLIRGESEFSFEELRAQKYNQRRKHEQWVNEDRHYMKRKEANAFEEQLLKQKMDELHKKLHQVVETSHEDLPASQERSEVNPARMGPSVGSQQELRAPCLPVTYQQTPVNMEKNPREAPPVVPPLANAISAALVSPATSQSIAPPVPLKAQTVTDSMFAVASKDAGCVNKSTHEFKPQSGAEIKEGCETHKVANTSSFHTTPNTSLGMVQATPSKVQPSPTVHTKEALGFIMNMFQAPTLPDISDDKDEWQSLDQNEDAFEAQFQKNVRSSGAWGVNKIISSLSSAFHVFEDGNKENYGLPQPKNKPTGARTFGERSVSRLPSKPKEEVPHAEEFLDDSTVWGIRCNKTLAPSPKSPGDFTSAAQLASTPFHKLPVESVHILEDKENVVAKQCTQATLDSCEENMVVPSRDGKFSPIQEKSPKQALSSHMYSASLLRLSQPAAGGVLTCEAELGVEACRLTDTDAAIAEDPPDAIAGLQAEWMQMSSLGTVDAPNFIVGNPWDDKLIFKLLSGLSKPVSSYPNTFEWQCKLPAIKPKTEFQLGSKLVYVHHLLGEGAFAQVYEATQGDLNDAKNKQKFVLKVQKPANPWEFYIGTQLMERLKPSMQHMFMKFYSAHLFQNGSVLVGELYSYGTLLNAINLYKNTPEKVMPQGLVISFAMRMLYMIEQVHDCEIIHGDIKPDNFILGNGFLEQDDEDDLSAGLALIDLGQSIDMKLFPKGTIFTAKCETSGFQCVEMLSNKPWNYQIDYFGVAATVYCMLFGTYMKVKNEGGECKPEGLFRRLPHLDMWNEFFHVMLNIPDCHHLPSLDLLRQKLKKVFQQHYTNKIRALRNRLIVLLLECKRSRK

[7] = molecular target: Myosin light chain kinase 2, skeletal/cardiac muscle (Homo sapiens) (UniProt Q9H1R3); assay: Inhibition of MYLK2 (unknown origin) assessed as residual activity at 1000 nM by KINOMEscan analysis relative to control
Chain of Myosin light chain kinase 2, skeletal/cardiac muscle (Homo sapiens) (Q9H1R3 whole entry): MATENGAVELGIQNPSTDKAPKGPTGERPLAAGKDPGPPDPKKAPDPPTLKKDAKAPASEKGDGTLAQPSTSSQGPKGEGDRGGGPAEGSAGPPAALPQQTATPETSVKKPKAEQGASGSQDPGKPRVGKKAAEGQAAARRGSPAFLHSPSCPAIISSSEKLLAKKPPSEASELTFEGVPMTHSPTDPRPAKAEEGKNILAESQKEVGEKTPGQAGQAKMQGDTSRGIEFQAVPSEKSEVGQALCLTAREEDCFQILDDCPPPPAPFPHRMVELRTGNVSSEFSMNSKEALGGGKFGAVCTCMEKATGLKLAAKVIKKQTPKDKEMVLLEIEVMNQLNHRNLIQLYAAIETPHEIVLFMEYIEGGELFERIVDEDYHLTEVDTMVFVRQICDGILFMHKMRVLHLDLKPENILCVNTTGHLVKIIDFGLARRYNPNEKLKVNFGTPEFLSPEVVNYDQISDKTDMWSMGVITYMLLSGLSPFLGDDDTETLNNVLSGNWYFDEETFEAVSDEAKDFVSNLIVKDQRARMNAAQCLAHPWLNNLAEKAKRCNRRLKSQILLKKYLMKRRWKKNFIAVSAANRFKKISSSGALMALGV

| SMILES | Activity [1] [%] | Activity [2] [%] | Activity [3] [%] | Activity [4] [%] | Activity [5] [%] | Activity [6] [%] | Activity [7] [%] |
| --- | --- | --- | --- | --- | --- | --- | --- |
| COc1cc2nc(C)nc(N[C@H](C)c3cccc(-c4cn[nH]c4)c3)c2cc1OC | 55 | 98 | 100 | 100 | 80 | 100 | 73 |
| COc1cc2ncnc(N[C@H](C)c3cccc4ccccc34)c2cc1OC | 96 | 100 | 89 | 78 | 86 | 100 | 100 |
